Data on one compound can be found in publication PMC8347092, “Betulin, a Newly Characterized Compound in Acacia auriculiformis Bark, Is a Multi-Target Protein Kinase Inhibitor” (Molecules, 2021).

The assay concerns the target T1, JAK3 (Homo sapiens, UniProt P52333).
T1 sequence (P52333 1-1124): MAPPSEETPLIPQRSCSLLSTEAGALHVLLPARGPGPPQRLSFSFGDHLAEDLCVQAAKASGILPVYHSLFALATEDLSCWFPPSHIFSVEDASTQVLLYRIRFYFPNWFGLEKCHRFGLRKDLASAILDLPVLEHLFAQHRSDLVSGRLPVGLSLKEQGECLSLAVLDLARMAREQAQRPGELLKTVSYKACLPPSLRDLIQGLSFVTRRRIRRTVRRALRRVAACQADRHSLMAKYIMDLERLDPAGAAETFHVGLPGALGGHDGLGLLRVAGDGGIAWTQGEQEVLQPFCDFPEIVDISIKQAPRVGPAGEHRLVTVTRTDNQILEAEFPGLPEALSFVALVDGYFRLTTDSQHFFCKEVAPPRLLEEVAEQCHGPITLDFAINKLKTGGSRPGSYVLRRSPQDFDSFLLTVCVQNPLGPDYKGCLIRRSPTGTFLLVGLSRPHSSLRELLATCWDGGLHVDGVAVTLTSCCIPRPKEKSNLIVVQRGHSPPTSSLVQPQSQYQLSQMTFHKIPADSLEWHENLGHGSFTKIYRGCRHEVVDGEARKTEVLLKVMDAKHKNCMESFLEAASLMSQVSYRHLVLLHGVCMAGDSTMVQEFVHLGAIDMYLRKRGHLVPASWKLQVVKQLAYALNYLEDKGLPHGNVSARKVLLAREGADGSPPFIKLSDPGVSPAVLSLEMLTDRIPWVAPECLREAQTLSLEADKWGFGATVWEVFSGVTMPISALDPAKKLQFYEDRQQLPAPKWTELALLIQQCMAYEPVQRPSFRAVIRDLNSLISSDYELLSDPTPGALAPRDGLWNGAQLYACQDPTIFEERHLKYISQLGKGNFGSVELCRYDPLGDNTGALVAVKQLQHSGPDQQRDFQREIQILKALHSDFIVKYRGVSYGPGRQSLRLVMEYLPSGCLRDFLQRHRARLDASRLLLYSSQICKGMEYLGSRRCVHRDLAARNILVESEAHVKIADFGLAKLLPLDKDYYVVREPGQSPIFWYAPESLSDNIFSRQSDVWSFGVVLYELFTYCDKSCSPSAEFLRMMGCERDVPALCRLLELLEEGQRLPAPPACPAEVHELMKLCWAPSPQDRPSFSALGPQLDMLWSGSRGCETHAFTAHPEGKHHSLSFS
As to the kind of experiment: ADP-Glo protein kinase assay, JAK3. It is filed as biochemical. The settings on record: for % of kinase activity that remained, JAK3: 10 µM ATP, normalized to DMSO control, mean n = 2. As for the experimental part: Kinase enzymatic activities were assayed in 384-well plates using the ADP-Glo^TM assay kit, following the recommendations of the manufacturer (Promega, Madison, WI). Controls were performed in appropriate dilutions of dimethyl sulfoxide (DMSO). Kinase activities, measured in the presence of 10 µM ATP, are expressed as percentage of maximal activity, i.e., measured in the absence of inhibitor. In order to determine the half-maximal inhibitory concentration (IC50), the assays were performed in duplicate in the absence or presence of increasing doses of the tested compounds. Data were analyzed using GraphPad PRISM (GraphPad Software, San Diego, CA, USA) software to fit a sigmoïdal curve that allowed determination of the IC50 values. The experimental conditions used for measuring kinase activities are comprehensively described in Ibrahim et al.. Human recombinant ABL1 mutant (T315I) was purchased from Promega (Catalog # V5320) and tested following the recommendations of the manufacturer (Promega, Madison, WI, USA).

In turn, `C=C(C)[C@@H]1CC[C@]2(CO)CC[C@]3(C)[C@H](CC[C@@H]4[C@@]5(C)CC[C@H](O)C(C)(C)[C@@H]5CC[C@]43C)[C@@H]12` [Betulin, 3-lup-20(29)-ene-3β,28-diol] showed an IC50 of 1080 nM. The “% of kinase activity that remained, JAK3” value (betulin purified from Acacia auriculiformis at 1 µg/mL) was 28%. In addition, the “% of kinase activity that remained, JAK3” value (betulin purified from Acacia auriculiformis at 10 µg/mL) was 25%.
